This is an account of results in patent publication US20260001922A1, “PEPTIDES TARGETING SODIUM CHANNELS TO TREAT PAIN” (priority 2022, published 2026).

pIC50: −log10 of the molar value. Positions of bridges follow the written chain, without caps; N, C: chain ends. Non-standard residues stand in square brackets, D forms with d. Residues, ends and D or L forms follow the SMILES beside them. Agb = N=C(N)NCC[C@H](N)C(=O)O

Data set [1] concerns the target human Nav1.7 (Homo sapiens, UniProt Q15858). Put plainly: cell-based. The note with it: for pIC50: whole-cell voltage clamp, HEK 293 cells, read-out: hNav1.7 IC50. The method, then: HEK-293 cells stably expressing human Nav1.1, Nav1.4, Nav1.5, Nav1.6 and Nav1.7 were obtained from Dr. Chris Lossin. Rat Nav1.3 expressing HEK-293 cells were from Dr. Steven Waxman (Yale University, New Haven, CT). These cell lines were cultured in complete DMEM supplemented with 10% FBS, 1% penicillin/streptomycin, and G418. The human Nav1.8 channel (co-expressing with human Navβ1 and Navβ2 subunits) and the Nav1.9 channel (co-expressing with human Trkb, Navβ1, and Navβ2 subunits) were obtained from Icagen (Durham, NC). hNav1.8 cells cultured with G418 (0.4 mg/mL) and puromycin ([…]/mL) and hNav1.9 cells were cultured with G418 (0.4 mg/mL), puromycin ([…]), and zeocin (0.05 mg/mL). Human Nav1.2 were expressed transiently by transfection of the hNav1.2 cDNA (from Dr. Alan L. Goldin, UC Irvine, CA) into HEK-293 cells.
Whole-cell patch-clamp experiments on recombinant channels were conducted manually at room temperature (22-24° C.) using an EPC-10 amplifier (HEKA Electronik, Lambrecht/Pfalz, Germany). Cells were trypsinized and plated onto poly-1-lysine-coated coverslips. All recordings were done in normal Ringer external bath solution containing (in mM) 160 NaCl, 4.5 KCl, 2 CaCl2), 1 MgCl2, 10 HEPES (pH 7.4 and 305 mOsm) as. Patch pipettes were pulled from soda lime glass (micro-hematocrit tubes, Kimble Chase, Rochester, NY) and had resistances of 2-3 MQ when filled with CsF-based internal solution containing (in mM) 10 NaF, 110 CsF, 20 CsCl, 10 HEPES, 2 EGTA, (pH 7.4, 310 mOsm). Data acquisition and analysis were performed with Pulse-PulseFit (HEKA Electronik GmbH, Germany), IgorPro (WaveMetrics, Portland, OR), and Origin 9.0 software (OriginLab Corporation, Northampton, MA). Cells were held at −90 mV and voltage stepped to −120 mV for 200 ms before depolarizing to −10 mV for 50 msec to elicit inward currents. Control test currents were monitored for 5-10 min to ensure that the amplitude and kinetics of the response were stable. Series resistance was compensated to 80-90% and linear leak currents and capacitance artefacts were corrected using a P/4 subtraction method. Pulse interval was 0.1 Hz and peptides were applied to individual cells using a glass transfer pipette directly into the recording bath. For measuring inhibition, currents were allowed to saturate with repeated pulsing before addition of subsequent doses. IC50 values were derived from measurements performed on individual cells that were tested with at least three or more concentrations of each peptide.

In data set [2] the target is human Nav1.5 (Homo sapiens, UniProt Q14524). Put plainly: in vitro. It is filed as cell-based. To be noted: pH 7.4, read-out: block of hNav1.5 current (% inhibition).
Data set [3] has as its target human Nav1.4 (Homo sapiens, UniProt P35499). Put plainly: cell-based. The note with it: HEK293, read-out: block of hNav1.4 current (% inhibition).
In data set [4] the target is T1, human Nav1.2 (Homo sapiens, UniProt Q99250).
T1 construct: host or cells: HEK-293 (transient)
Put plainly: cell-based. To be noted: HEK293, read-out: block of hNav1.2 current (% inhibition).

The subject of data set [5] is rat models of thermal and chemical nociception. Also noted: motor effect via intrathecal administration: dose or concentration left out as unconfirmed. To be noted: cited from earlier work.
Data set [6] concerns the target hNav1.7 (Homo sapiens, UniProt Q15858). The note with it: peptides of the literature; cited from earlier work.

Sequence of human Nav1.7 (Q15858 whole entry): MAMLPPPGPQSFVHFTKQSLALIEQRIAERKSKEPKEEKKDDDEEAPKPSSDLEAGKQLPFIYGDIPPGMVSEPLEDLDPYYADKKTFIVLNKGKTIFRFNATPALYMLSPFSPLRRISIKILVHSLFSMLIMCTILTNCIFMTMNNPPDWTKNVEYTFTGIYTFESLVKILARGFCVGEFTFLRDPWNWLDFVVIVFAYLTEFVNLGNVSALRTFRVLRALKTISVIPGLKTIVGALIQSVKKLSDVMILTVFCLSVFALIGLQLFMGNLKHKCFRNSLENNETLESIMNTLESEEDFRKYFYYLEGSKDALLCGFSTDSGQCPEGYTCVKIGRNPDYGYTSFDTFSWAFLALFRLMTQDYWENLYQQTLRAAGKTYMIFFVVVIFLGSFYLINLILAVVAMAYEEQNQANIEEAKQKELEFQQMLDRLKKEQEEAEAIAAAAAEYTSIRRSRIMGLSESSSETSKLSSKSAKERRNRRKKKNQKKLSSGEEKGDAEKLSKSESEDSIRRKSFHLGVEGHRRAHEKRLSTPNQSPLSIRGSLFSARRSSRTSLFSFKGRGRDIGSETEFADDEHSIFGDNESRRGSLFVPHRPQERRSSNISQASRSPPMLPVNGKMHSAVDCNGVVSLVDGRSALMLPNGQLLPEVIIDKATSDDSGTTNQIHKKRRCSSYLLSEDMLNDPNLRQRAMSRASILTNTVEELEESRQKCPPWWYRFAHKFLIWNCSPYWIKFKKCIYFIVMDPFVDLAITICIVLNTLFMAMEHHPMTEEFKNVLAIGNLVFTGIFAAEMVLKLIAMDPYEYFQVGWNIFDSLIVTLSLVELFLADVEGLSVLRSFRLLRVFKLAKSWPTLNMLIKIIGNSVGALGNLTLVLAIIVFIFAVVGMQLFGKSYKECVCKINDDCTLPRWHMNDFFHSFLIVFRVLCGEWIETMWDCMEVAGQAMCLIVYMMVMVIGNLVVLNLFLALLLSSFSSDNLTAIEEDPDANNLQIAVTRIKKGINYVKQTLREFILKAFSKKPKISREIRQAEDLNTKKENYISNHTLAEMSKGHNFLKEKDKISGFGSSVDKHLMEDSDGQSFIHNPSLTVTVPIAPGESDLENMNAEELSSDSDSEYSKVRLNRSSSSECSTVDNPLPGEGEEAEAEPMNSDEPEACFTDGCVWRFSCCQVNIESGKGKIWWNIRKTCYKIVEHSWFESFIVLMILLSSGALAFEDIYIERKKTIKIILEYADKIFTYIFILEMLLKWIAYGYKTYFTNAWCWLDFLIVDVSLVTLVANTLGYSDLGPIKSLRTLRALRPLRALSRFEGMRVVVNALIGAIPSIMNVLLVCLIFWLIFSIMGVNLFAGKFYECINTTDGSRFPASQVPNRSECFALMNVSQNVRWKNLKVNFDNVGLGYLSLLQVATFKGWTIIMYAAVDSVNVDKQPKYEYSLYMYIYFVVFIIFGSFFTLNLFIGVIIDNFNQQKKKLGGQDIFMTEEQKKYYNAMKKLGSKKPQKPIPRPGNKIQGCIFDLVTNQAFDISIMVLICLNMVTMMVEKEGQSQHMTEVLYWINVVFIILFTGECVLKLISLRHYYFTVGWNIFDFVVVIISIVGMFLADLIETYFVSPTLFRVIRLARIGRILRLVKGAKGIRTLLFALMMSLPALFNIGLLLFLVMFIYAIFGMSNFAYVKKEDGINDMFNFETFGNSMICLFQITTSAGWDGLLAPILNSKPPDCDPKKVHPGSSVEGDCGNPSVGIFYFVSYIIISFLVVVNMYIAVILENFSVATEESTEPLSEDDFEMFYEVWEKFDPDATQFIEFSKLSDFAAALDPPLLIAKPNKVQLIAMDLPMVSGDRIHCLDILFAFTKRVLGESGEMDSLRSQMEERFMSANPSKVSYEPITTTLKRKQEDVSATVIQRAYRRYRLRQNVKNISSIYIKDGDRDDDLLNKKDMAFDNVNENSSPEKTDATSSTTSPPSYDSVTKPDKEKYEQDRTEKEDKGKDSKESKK
Sequence of human Nav1.4 (P35499 whole entry): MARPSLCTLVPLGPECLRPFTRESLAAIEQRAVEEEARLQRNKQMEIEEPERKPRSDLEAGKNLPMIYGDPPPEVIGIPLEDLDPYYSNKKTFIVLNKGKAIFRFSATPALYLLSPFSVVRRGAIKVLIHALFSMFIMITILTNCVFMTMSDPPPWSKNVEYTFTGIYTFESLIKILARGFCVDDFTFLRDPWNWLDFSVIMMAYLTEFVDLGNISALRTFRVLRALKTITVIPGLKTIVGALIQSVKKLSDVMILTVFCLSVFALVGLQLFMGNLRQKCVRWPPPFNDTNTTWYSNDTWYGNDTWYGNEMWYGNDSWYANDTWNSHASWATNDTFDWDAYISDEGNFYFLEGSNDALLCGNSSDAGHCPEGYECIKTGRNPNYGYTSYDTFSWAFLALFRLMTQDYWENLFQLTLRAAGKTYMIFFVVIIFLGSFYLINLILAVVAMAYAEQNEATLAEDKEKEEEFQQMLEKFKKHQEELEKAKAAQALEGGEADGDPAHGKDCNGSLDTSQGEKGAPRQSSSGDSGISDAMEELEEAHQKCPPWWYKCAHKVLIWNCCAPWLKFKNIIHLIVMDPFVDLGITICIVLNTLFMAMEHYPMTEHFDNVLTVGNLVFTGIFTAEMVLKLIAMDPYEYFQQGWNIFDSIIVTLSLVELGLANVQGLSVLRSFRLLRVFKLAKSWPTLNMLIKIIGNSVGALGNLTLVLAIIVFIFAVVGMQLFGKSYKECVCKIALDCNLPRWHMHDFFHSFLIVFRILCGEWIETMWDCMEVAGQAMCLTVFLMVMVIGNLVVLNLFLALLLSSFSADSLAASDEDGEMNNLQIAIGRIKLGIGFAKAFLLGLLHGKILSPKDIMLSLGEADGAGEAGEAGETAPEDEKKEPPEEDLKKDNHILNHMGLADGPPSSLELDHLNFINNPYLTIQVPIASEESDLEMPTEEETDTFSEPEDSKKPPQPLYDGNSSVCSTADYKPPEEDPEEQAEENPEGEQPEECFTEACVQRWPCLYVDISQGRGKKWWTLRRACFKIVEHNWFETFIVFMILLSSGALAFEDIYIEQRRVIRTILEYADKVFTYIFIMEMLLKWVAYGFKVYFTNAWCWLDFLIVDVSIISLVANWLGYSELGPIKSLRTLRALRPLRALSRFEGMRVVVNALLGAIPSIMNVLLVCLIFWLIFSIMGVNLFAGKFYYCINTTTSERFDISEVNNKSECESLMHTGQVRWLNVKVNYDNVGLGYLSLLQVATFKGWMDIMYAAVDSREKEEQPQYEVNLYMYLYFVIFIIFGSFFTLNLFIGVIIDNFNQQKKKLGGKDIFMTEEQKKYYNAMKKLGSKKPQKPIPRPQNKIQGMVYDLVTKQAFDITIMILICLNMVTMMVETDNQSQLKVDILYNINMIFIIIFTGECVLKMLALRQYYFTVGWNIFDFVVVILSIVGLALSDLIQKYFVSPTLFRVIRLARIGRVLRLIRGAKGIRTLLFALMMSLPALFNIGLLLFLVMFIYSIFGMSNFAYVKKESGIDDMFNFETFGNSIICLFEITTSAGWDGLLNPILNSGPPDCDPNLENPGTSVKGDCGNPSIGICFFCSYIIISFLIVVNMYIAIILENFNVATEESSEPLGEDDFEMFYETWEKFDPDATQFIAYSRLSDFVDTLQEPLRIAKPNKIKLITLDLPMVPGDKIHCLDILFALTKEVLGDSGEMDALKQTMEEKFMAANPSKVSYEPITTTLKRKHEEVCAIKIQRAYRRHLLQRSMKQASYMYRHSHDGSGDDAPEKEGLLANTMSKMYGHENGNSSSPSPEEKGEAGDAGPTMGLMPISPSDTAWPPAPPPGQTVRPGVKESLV
Sequence of hNav1.7 (Q15858 whole entry): as the sequence (Q15858 whole entry) above

On to `CC(C)C[C@@H]1NC(=O)CNC(=O)[C@H](CCC(=O)O)NC(=O)[C@@H]2CSSC[C@H](NC(=O)[C@@H](N)Cc3ccc(O)cc3)C(=O)N[C@@H](CCC(N)=O)C(=O)N[C@@H](CCCCN)C(=O)N[C@@H](C)C(=O)N[C@@H](Cc3ccccc3)C(=O)N[C@@H](Cc3c[nH]c4ccccc34)C(=O)N[C@@H]([C@@H](C)O)C(=O)N[C@H]3CSSC[C@H](NC(=O)[C@H](CCCNC(=N)N)NC1=O)C(=O)N[C@@H](CCNC(=N)N)C(=O)N[C@@H](CC(C)C)C(=O)N[C@@H](Cc1c[nH]c4ccccc14)C(=O)N[C@H](C(=O)N[C@@H](CCCCN)C(=O)N[C@@H](CCCCN)C(=O)N[C@@H](CCC(=O)O)C(=O)N[C@@H](CC(C)C)C(=O)N[C@@H](Cc1c[nH]c4ccccc14)C(N)=O)CSSC[C@H](NC(=O)[C@H](CCCCN)NC(=O)[C@H](CCCNC(=N)N)NC(=O)[C@H](CCC(=O)O)NC(=O)[C@H](CO)NC(=O)[C@H](CC(=O)O)NC3=O)C(=O)N2` [PTx2-2954], for which, in data set [1] (at 5 μM), the “effect on hNav1.7 currents” value was “no effect”.

By pIC50 is commonly meant −log10 of the IC50, conventionally taken in molar units. With `CC(C)C[C@@H]1NC(=O)CNC(=O)[C@H](CCC(=O)O)NC(=O)[C@@H]2CSSC[C@H](NC(=O)[C@@H](N)Cc3ccc(O)cc3)C(=O)N[C@@H](CCC(N)=O)C(=O)N[C@@H](CCCCN)C(=O)N[C@@H](C)C(=O)N[C@@H](Cc3ccccc3)C(=O)N[C@@H](Cc3c[nH]c4ccccc34)C(=O)N[C@@H]([C@@H](C)O)C(=O)N[C@H]3CSSC[C@H](NC(=O)[C@H](CCCNC(=N)N)NC1=O)C(=O)N[C@@H](CCNC(=N)N)C(=O)N[C@@H](CC(C)C)C(=O)N[C@@H](Cc1c[nH]c4ccccc14)C(=O)N[C@H](C(=O)N[C@@H](CCCNC(=N)N)C(=O)N[C@@H](CCCCN)C(=O)N[C@@H](CCC(=O)O)C(=O)N[C@@H](CC(C)C)C(=O)N[C@@H](Cc1c[nH]c4ccccc14)C(N)=O)CSSC[C@H](NC(=O)[C@H](CCCCN)NC(=O)[C@H](CCCNC(=N)N)NC(=O)[C@H](CCC(=O)O)NC(=O)[C@H](CO)NC(=O)[C@H](CC(=O)O)NC3=O)C(=O)N2` [PTx2-2955], the pIC50 in data set [1] is 6.73.

On to `CC(C)C[C@@H]1NC(=O)CNC(=O)[C@H](CCC(=O)O)NC(=O)[C@@H]2CSSC[C@H](NC(=O)[C@@H](N)Cc3ccc(O)cc3)C(=O)N[C@@H](CCC(N)=O)C(=O)N[C@@H](CCCCN)C(=O)N[C@@H](C)C(=O)N[C@@H](Cc3ccccc3)C(=O)N[C@@H](Cc3c[nH]c4ccccc34)C(=O)N[C@@H]([C@@H](C)O)C(=O)N[C@H]3CSSC[C@H](NC(=O)[C@H](CCCNC(=N)N)NC1=O)C(=O)N[C@@H](CCNC(=N)N)C(=O)N[C@@H](CC(C)C)C(=O)N[C@@H](Cc1c[nH]c4ccccc14)C(=O)N[C@H](C(=O)N[C@@H](CCCNC(=N)N)C(=O)N[C@@H](CCCCN)C(=O)N[C@@H](CCC(=O)O)C(=O)N[C@@H](CC(C)C)C(=O)N[C@@H](Cc1c[nH]c4ccccc14)C(N)=O)CSSC[C@H](NC(=O)[C@H](CCCCN)NC(=O)[C@H](CCCNC(=N)N)NC(=O)[C@H](C)NC(=O)[C@H](CO)NC(=O)[C@H](CC(=O)O)NC3=O)C(=O)N2` [PTx2-3063] (H-YCQKAFWTCDSARKCCEGLRC[Agb]LWCRKELW-NH2; disulfide 2-16, 9-21, 15-25), for which the pIC50 in data set [1] is 6.81.

The term inhibition denotes how much of the control response was suppressed. For `CC(C)C[C@@H]1NC(=O)CNC(=O)[C@H](CCC(=O)O)NC(=O)[C@@H]2CSSC[C@H](NC(=O)[C@@H](N)Cc3ccc(O)cc3)C(=O)N[C@@H](CCC(N)=O)C(=O)N[C@@H](CCCCN)C(=O)N[C@@H](C)C(=O)N[C@@H](Cc3ccccc3)C(=O)N[C@@H](Cc3c[nH]c4ccccc34)C(=O)N[C@@H]([C@@H](C)O)C(=O)N[C@H]3CSSC[C@H](NC(=O)[C@H](CCCNC(=N)N)NC1=O)C(=O)N[C@@H](CCCNC(=N)N)C(=O)N[C@@H](CC(C)C)C(=O)N[C@@H](Cc1c[nH]c4ccccc14)C(=O)N[C@H](C(=O)N[C@@H](CCCNC(=N)N)C(=O)N[C@@H](CCCCN)C(=O)N[C@@H](CCC(=O)O)C(=O)N[C@@H](CC(C)C)C(=O)N[C@@H](Cc1c[nH]c4ccccc14)C(N)=O)CSSC[C@H](NC(=O)[C@H](CCCCN)NC(=O)[C@H](CCCNC(=N)N)NC(=O)[C@H](C)NC(=O)[C@H](CO)NC(=O)[C@H](CC(=O)O)NC3=O)C(=O)N2` [PTx2-3064] (H-YCQKAFWTCDSARKCCEGLRCRLWCRKELW-NH2; disulfide 2-16, 9-21, 15-25), the inhibition at 10 µM in data set [2] was around 25%; in data set [3] it was around 66%; in data set [4] it was around 92%.

With `CSCC[C@@H]1NC(=O)[C@H](Cc2c[nH]c3ccccc23)NC(=O)[C@H](CCCCN)NC(=O)[C@H](CCC(N)=O)NC(=O)[C@@H](NC(=O)[C@@H](N)Cc2ccc(O)cc2)CSSC[C@@H]2NC(=O)[C@@H]3CSSC[C@@H](C(=O)N[C@@H](CCCNC(=N)N)C(=O)N[C@@H](CCCCN)C(=O)N[C@@H](CCC(=O)O)C(=O)N[C@@H](CC(C)C)C(=O)N[C@@H](CC(C)C)C(N)=O)NC(=O)[C@H](Cc4c[nH]c5ccccc45)NC(=O)[C@H](CC(C)C)NC(=O)[C@H](CCCNC(=N)N)NC(=O)[C@H](CSSC[C@H](NC(=O)[C@H]([C@@H](C)O)NC(=O)[C@H](CCC(N)=O)NC1=O)C(=O)N[C@@H](CC(=O)O)C(=O)N[C@@H](CCCCN)C(=O)N[C@@H](CC(=O)O)C(=O)N[C@@H](CCCNC(=N)N)C(=O)N[C@@H](CCCCN)C(=O)N3)NC(=O)[C@H](CCCNC(=N)N)NC(=O)[C@H](CC(C)C)NC(=O)CNC(=O)[C@H](CCC(=O)O)NC2=O` [PTx2-3066] (H-YCQKWMQTCDKDRKCCEGLRCRLWCRKELL-NH2; disulfide 2-16, 9-21, 15-25), the figures for the inhibition at 10 µM in data set [2], in data set [3] and in data set [4] were around 1%, around 34% and around 41%, respectively. Besides, the pIC50 in data set [1] is 7.51.

With `CSCC[C@@H]1NC(=O)CNC(=O)[C@H](CCC(=O)O)NC(=O)[C@@H]2CSSC[C@H](NC(=O)[C@@H](N)Cc3ccc(O)cc3)C(=O)N[C@@H](CCC(N)=O)C(=O)N[C@@H](CCCCN)C(=O)N[C@@H](Cc3c[nH]c4ccccc34)C(=O)N[C@@H](CCSC)C(=O)N[C@@H](Cc3c[nH]c4ccccc34)C(=O)N[C@@H]([C@@H](C)O)C(=O)N[C@H]3CSSC[C@H](NC(=O)[C@H](C(C)C)NC1=O)C(=O)N[C@@H](CCCNC(=N)N)C(=O)N[C@@H](CC(C)C)C(=O)N[C@@H](Cc1c[nH]c4ccccc14)C(=O)N[C@H](C(=O)N[C@@H](CCCCN)C(=O)N[C@@H](CCCCN)C(=O)N[C@@H](CCCCN)C(=O)N[C@@H](CC(C)C)C(=O)N[C@@H](Cc1c[nH]c4ccccc14)C(=O)O)CSSC[C@H](NC(=O)[C@H](CCCCN)NC(=O)[C@H](CCCNC(=N)N)NC(=O)[C@H](CCC(=O)O)NC(=O)[C@H](CO)NC(=O)[C@H](CC(=O)O)NC3=O)C(=O)N2` [ProTx-II], the “effect on nociceptive assays” value in data set [5] (0.24 μg i.t., Merck's study) was “no effect”. In addition, the “motor effect via intrathecal administration” value in data set [5] (Merck's study) is recorded as “laming effect”. For the same compound, the maximum tolerated dose in data set [5] (in 10 μL, rats, Janssen's study) is 2 µg. Also, in data set [5] (rat models of thermal and chemical nociception, Janssen Biotech), the “analgesic effect following intrathecal injection” value is “strong analgesic effect”.

Regarding “DCLKFGWKCNPRNDKCCSGLKSGSNHNWCKLHL [ProTx-III]”, the negative-log IC50 (pIC50) in data set [6] was 7.94.

ECQKWMWTCDSARACCEGLRCKLWCRKII [JzTx-V]: the negative-log IC50 (pIC50) in data set [6] was 9.22.
